Measured values reported in patent US8735384B2, “Amino heteroaryl compounds as beta-secretase modulators and methods of use” (Amgen Inc., priority 2010, dated 2014).

Assays:
BACE1 = BACE1 (Homo sapiens, UniProt P56817); assay: In vitro enzymatic BACE FRET assay; type: biochemical; settings: beta secretase enzyme 0.2 nM, FRET substrate 50 nM, pH 4.2; read-out: BACE1 FRET assay (IC50 class)
In short: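 Enzyme activity was measured as release of quenching from a 50 nM fluorophore/quencher peptide spanning the cleavage site, over 1 h. This followed 1 h pre-incubation of 0.2 nM enzyme with compound dilutions at pH 4.2 (acetate, 10% DMSO, genapol). Tris addition ended the reaction before fluorescence was measured.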

[1] = system: Aβ40 in conditioned medium of cells stably expressing Amyloid Precursor Protein (APP); assay: In vitro BACE cell-based assay (HEK cell assay), Aβ40 sandwich ELISA; settings: Homo sapiens, HEK293, 24 h, inhibition of Aβ40, 24 h incubation, read-out: HEK cell assay (IC50 class)
In short: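 Aβ40 in conditioned medium measured after 24 h compound exposure (10-point series, 100 μM or 10 μM start, 0.1% DMSO) of cells stably expressing APP, seeded 40K/well. Detection: pAb40/6E10-biotin sandwich ELISA at 4°C with time-resolved europium read-out; IC50 derived from percent of control.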

Chain of BACE1 (P56817 46-501, species assumed): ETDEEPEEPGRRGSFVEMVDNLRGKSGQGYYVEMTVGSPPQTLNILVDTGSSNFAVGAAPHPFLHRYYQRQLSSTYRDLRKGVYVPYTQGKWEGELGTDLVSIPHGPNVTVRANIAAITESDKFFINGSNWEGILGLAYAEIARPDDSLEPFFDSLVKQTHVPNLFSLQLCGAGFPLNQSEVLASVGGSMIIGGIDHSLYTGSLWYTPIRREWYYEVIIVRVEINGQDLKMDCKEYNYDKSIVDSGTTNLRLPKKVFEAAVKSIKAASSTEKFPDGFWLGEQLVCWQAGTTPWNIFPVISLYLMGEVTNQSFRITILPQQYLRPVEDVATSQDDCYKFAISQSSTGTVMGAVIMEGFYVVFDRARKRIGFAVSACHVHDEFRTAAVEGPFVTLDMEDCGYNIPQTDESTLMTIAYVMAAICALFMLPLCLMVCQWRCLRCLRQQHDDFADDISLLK

Compound | IC50 (BACE1) [nM] | IC50 [1] [nM]
Cc1cccc(C(=O)N(C)C2CCCCC2)c1-c1ccc2nc(N)c(N3CCOCC3)cc2c1 [Example 112, 2-(2-amino-3-morpholinoquinolin-6-yl)-N-cyclohexyl-N,3-dimethylbenzamide] | < 100 | 1010 to 5000
Cc1cccc(C(=O)c2ccccn2)c1-c1ccc2nc(N)c(C3CCOCC3)cc2c1 [Example 38, (2-(2-amino-3-(tetrahydro-2H-pyran-4-yl)quinolin-6-yl)-3-methylphenyl)(pyridin-2-yl)methanone] | < 100 | 100 to 500
Cc1cccc(N2CC(C)(C)OCC2=O)c1-c1ccc2nc(N)c(N3CCOCC3)cc2c1 [Example 49, 4-(2-(2-amino-3-morpholinoquinolin-6-yl)-3-methylphenyl)-6,6-dimethylmorpholin-3-one] | 100 to 500 | 1010 to 5000
Cc1cccc(C(=O)N2[C@H](C)CCC[C@@H]2C)c1-c1ccc2nc(N)c(N3CCOCC3)cc2c1 [Example 84, (2-(2-amino-3-morpholinoquinolin-6-yl)-3-methylphenyl)((2S,6R)-2,6-dimethylpiperidin-1-yl)methanone] | < 100 | 501 to 1000
CCOC(=O)c1cccc(C)c1-c1ccc2nc(N)c(N3CCOCC3)cc2c1 [Example 62, ethyl 2-(2-amino-3-morpholinoquinolin-6-yl)-3-methylbenzoate] | 100 to 500 | 1010 to 5000
COc1ccccc1C(=N)c1cccc(C)c1-c1ccc2nc(N)c(N3CCOCC3)cc2c1 [Example 6, 6-(2-(imino(2-methoxyphenyl)methyl)-6-methylphenyl)-3-morpholinoquinolin-2-amine] | < 100 | < 100
Cc1cccc(C(=O)N(C)Cc2cccc3ccccc23)c1-c1ccc2nc(N)c(N3CCOCC3)cc2c1 [Example 135, 2-(2-amino-3-morpholinoquinolin-6-yl)-N,3-dimethyl-N-(naphthalen-1-ylmethyl)benzamide] | 100 to 500 | 1010 to 5000
Cc1cc(F)cc(C(=O)N2CC[C@@H](F)C2)c1-c1ccc2nc(N)c(N3CCOCC3)cc2c1 [Example 130, (R)-(2-(2-amino-3-morpholinoquinolin-6-yl)-5-fluoro-3-methylphenyl)(3-fluoropyrrolidin-1-yl)methanone] | < 100 | 100 to 500
COc1cccnc1C(=O)c1cccc(C)c1-c1ccc2nc(N)c(N3CCOCC3)cc2c1 [Example 187, (2-(2-amino-3-morpholinoquinolin-6-yl)-3-methylphenyl)(3-methoxypyridin-2-yl)methanone] | < 100 | 100 to 500
Cc1cccc(C(=O)N2CCCC2C(C)(C)C)c1-c1ccc2nc(N)c(N3CCOCC3)cc2c1 (stereo not shown) [Example 64, (2-(2-amino-3-morpholinoquinolin-6-yl)-3-methylphenyl)(2-tert-butylpyrrolidin-1-yl)methanone] | < 100 | 501 to 1000
Cc1cccc(C(=O)OC2CCCC2)c1-c1ccc2nc(N)c(N3CCOCC3)cc2c1 [Example 19, cyclopentyl 2-(2-amino-3-morpholinoquinolin-6-yl)-3-methylbenzoate] | < 100 | 100 to 500
Nc1nc2ccc(-c3c(C#Cc4ccccc4)cccc3C(=O)N3CCCC3)cc2cc1N1CCOCC1 [Example 161, (2-(2-amino-3-morpholinoquinolin-6-yl)-3-(phenylethynyl)phenyl)(pyrrolidin-1-yl)methanone] | < 100 | 501 to 1000
Cc1cccc(C(=O)N2CCCC2)c1-c1ccc2nc(N)c(N3CCOC(CC(C)C)C3)cc2c1 (stereo not shown) [Example 213, (2-(2-amino-3-(2-isobutylmorpholino)quinolin-6-yl)-3-methylphenyl)(pyrrolidin-1-yl)methanone] | < 100 | 1010 to 5000
Cc1cccc(C#CC(C)(C)C)c1-c1ccc2nc(N)c(N3CCOCC3)cc2c1 [Example 40, 6-(2-(3,3-dimethylbut-1-ynyl)-6-methylphenyl)-3-morpholinoquinolin-2-amine] | < 100 | 1010 to 5000
Cc1cccc(C(=O)N2C[C@H]3CC[C@@H]2C3)c1-c1ccc2nc(N)c(N3CCOCC3)cc2c1 [Example 68, (2-(2-amino-3-morpholinoquinolin-6-yl)-3-methylphenyl)((1R,4S)-2-azabicyclo[2.2.1]heptan-2-yl)methanone] | < 100 | 100 to 500
CC(C)(C)CC(=O)c1ccccc1-c1ccc2nc(N)c(N3CCOCC3)cc2c1 [Example 153, 1-(2-(2-amino-3-morpholinoquinolin-6-yl)phenyl)-3,3-dimethylbutan-1-one] | 100 to 500 | > 5000
CCOCC1CCN(C(=O)c2cccc(C)c2-c2ccc3nc(N)c(N4CCOCC4)cc3c2)CC1 [Example 74, (2-(2-amino-3-morpholinoquinolin-6-yl)-3-methylphenyl)(4-(ethoxymethyl)piperidin-1-yl)methanone] | < 100 | 1010 to 5000
Nc1nc2ccc(-c3ccccc3C(=O)C3CCCC3)cc2cc1N1CCOCC1 [Example 149, (2-(2-amino-3-morpholinoquinolin-6-yl)phenyl)(cyclopentyl)methanone] | 100 to 500 | > 5000
Cc1cccc(C(=O)N2CCC(C)CC2)c1-c1ccc2nc(N)c(N3CCOCC3)cc2c1 [Example 80, (2-(2-amino-3-morpholinoquinolin-6-yl)-3-methylphenyl)(4-methylpiperidin-1-yl)methanone] | < 100 | 1010 to 5000
Nc1nc2ccc(-c3ccccc3F)cc2cc1N1CCOCC1 [Example 220, 6-(2-fluorophenyl)-3-morpholinoquinolin-2-amine] | 1010 to 5000 | > 5000
C#CCN(C)C(=O)c1cccc(C)c1-c1ccc2nc(N)c(N3CCOCC3)cc2c1 [Example 108, 2-(2-amino-3-morpholinoquinolin-6-yl)-N,3-dimethyl-N-(prop-2-ynyl)benzamide] | < 100 | 501 to 1000
Cc1cccnc1C(=O)c1cccc(C)c1-c1ccc2nc(N)c(N3CCOCC3)cc2c1 [Example 189, (2-(2-amino-3-morpholinoquinolin-6-yl)-3-methylphenyl)(3-methylpyridin-2-yl)methanone] | 100 to 500 | 501 to 1000
Nc1nc2ccc(-c3c(CCC4CCCCC4)cccc3C(=O)N3CCCC3)cc2cc1N1CCOCC1 [Example 168, (2-(2-amino-3-morpholinoquinolin-6-yl)-3-(2-cyclohexylethyl)phenyl)(pyrrolidin-1-yl)methanone] | < 100 | < 100
Cc1cccc(C(=O)N2CCCC(C)C2)c1-c1ccc2nc(N)c(N3CCOCC3)cc2c1 (stereo not shown) [Example 115, (2-(2-amino-3-morpholinoquinolin-6-yl)-3-methylphenyl)(3-methylpiperidin-1-yl)methanone] | < 100 | 501 to 1000
Cc1ccccc1C(=O)c1cccc(C)c1-c1ccc2nc(N)c(N3CCOCC3)cc2c1 [Example 3, (2-(2-amino-3-morpholinoquinolin-6-yl)-3-methylphenyl)(o-tolyl)methanone] | < 100 | 501 to 1000
Cc1cccc(OCc2ccccc2)c1-c1ccc2nc(N)c(N3CCOCC3)cc2c1 [Example 169, 6-(2-(benzyloxy)-6-methylphenyl)-3-morpholinoquinolin-2-amine] | < 100 | > 5000
